In PubChem BioAssay (NCI):
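The compound was tested at five concentrations on cells cultured in 96-well plates, with a 48-hour exposure period. Here, GI50 denotes the concentration required for 50% inhibition of growth. Definition used: TGI = concentration required for complete inhibition of growth.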

Tests used:
Test in all cases: inhibition of tumour cell growth, NCI panel, 48 h
786-0 renal = tested on: 786-0 renal
A549 NSCLC = tested on: A549 NSCLC
ACHN renal = tested on: ACHN renal
HT29 colon = tested on: HT29 colon
MDA-MB-435 = tested on: MDA-MB-435
NCI-H460 lung = tested on: NCI-H460 lung
NCI/ADR-RES ovarian = tested on: NCI/ADR-RES ovarian
RXF 393 renal = tested on: RXF 393 renal
SF-295 CNS = tested on: SF-295 CNS
SK-MEL-28 melanoma = tested on: SK-MEL-28 melanoma
SN12C renal = tested on: SN12C renal
SR leukemia = tested on: SR leukemia
T-47D breast = tested on: T-47D breast
UACC-257 melanoma = tested on: UACC-257 melanoma
MDA-MB-231 breast = tested on: MDA-MB-231 breast
PC-3 prostate = tested on: PC-3 prostate
SF-539 CNS = tested on: SF-539 CNS
HS 578T breast = tested on: HS 578T breast

Structure (SMILES)	TGI (786-0 renal) [µM]	TGI (A549 NSCLC) [µM]	TGI (ACHN renal) [µM]	TGI (HT29 colon) [µM]	TGI (MDA-MB-435) [µM]	TGI (NCI-H460 lung) [µM]	TGI (NCI/ADR-RES ovarian) [µM]	TGI (RXF 393 renal) [µM]	TGI (SF-295 CNS) [µM]	TGI (SK-MEL-28 melanoma) [µM]	TGI (SN12C renal) [µM]	TGI (SR leukemia) [µM]	TGI (T-47D breast) [µM]	TGI (UACC-257 melanoma) [µM]	TGI (MDA-MB-231 breast) [µM]	TGI (PC-3 prostate) [µM]	TGI (SF-539 CNS) [µM]	TGI (HS 578T breast) [µM]	GI50 (MDA-MB-231 breast) [µM]
O=C(/C=C/c1cccc([N+](=O)[O-])c1)N1CCN(CCOC(c2ccccc2)c2ccccc2)CC1	> 100	> 100	> 100	71.5	> 100	> 100	> 100	> 100	> 100	64.2	> 100	32.9	> 100	89.2					
NCc1ccc(-c2ccc(CN)s2)s1	> 100	> 100	> 100	> 100	> 100		83.6	> 100	> 100	> 100	> 100		> 100	> 100	> 100	> 100	> 100		
COc1cc2c(cc1C)NC(=O)/C2=C/c1cccnc1	> 52.5	> 55.3	> 56.8	> 100	86.1	35.4	42	25	40.5	> 100	29.5		8.13	27.7	27.5	> 64.6	> 84.7	97.2	9.27
Cc1cc(S(=O)(=O)Nc2nc(N)nc(N3N=CCC3C)n2)c(SCC(=O)O)cc1Cl (stereo not given)	> 10	> 10	> 10	> 10	> 10	> 10	> 10	> 10	> 10	> 10	> 10		> 10	> 10	> 10	> 10	> 10	> 10	
O=S(=O)(/N=S(/Nc1ccccc1)C(Cl)Cl)c1ccccc1 (stereo not given)	> 100	> 100	> 100	> 100	> 100	> 100	> 100	> 100	> 100	> 100	> 100		> 100	> 100	> 100	> 100	> 100	> 100	
C1=C(CC2=C[P+](c3ccccc3)(c3ccccc3)C=C(c3ccccc3)O2)OC(c2ccccc2)=C[P+]1(c1ccccc1)c1ccccc1	2.07	5.49	1.98	1.35	1.11	2.03	66.7		1.84	2.02		0.538		1.33	0.938	1.4	1.36		
CN(C)CCn1c(=O)c2ccc(NCCNCCO)c3c(=O)c4ccccc4n(c1=O)c23	4.16	3.16	15.9	4.6	2.07		16.3		14.6	> 19.7	0.509		7.61	3.14	0.852	2.09	0.593	1.37	
CC1(n2nc(-c3ccccc3)n(-c3ccccc3)c2=O)CSC1	> 100	> 100	> 100	> 100		> 100		> 100	> 100	> 100	> 100	> 100		> 100			> 100		
C/C(Cl)=N/OC(=O)Nc1ccc(F)c([N+](=O)[O-])c1	16.5	> 58.7	8.23	> 52.7	30.8	> 100	> 100	25.4	> 100	37.1	19.4	30.7		53.2	37.4	33.2	> 100	16.4	
O=[N+]([O-])/C(C(Cl)=C(Cl)Cl)=C1\Nc2ccc([N+](=O)[O-])cc2N1	> 100	> 100	> 100		> 100	> 100	> 100		> 100	> 100	> 100		> 100	> 100	> 100	> 100			
O=S(=O)(O)CCSSCCS(=O)(=O)O	> 1000	> 1000	> 1000	> 1000	> 1000	> 1000	> 1000	> 1000	> 1000	> 1000	> 1000	> 1000	> 1000	> 1000	> 1000	> 1000	> 1000		
Cc1ccc(-c2c(C#N)c(-c3ccccc3)n(NS(=O)(=O)c3ccc(C)cc3)c(=O)c2C#N)cc1	> 100	> 100	> 100	> 100	> 100	> 100	> 100	> 100	> 100	> 100	> 100			> 100	> 100	> 100	> 100		
[O-][n+]1nc(N2CCOCC2)nc2ccccc21	> 100	> 100	> 100	> 100	> 100		> 100	> 100	> 100	> 100	> 100		> 100	> 100	> 100	> 100	> 100	> 100	
CN(CCC(=O)N1CC(CCl)c2ccc([N+](=O)[O-])cc21)CCC(=O)N1CC(CCl)c2ccc([N+](=O)[O-])cc21 (stereo not given)	25	> 100	2.91	24	27.5	> 100			39.5	28.9	41.1		> 100	21.6	44.5	> 100	27.7	17.7	
